{"source": "the NIST ThermoML archive (doi:10.1021/je8006088)", "settings": "Crystal; visual observation", "note": "Numbers after ± are expanded uncertainties."}
{"smiles": "CC(C)=CCC[C@@H](C)[C@H]1CC[C@H]2[C@@H]3CC=C4C[C@@H](O)CC[C@]4(C)[C@H]3CC[C@]12C", "note": "[desmosterol]", "values": [{"measurement": "Normal melting temperature", "result": "120.6 ± 1.1", "unit": "°C"}]}
